Source: article PMC4186683 (Molecular Pharmaceutics, 2014)
Marks after values point to notes of the source that are not given here.

Legend:
[1] = experimental values from the ClogP database ref 119; cited from earlier work
[2] = DMPC bilayer; listed in Table 1; cited from earlier work
[3] = marked values, listed in Table 1; cited from earlier work
[4] = Fraction of total tissue amount present in the bilayer, calculated from Pb/w; conditions: bilayer volume 2.5% of tissue volume, no protein binding
[5] = test system: rhodopsin; conditions: 1-palmitoyl-2-oleoyl-PC vesicles ref 132; cited from earlier work

Clc1ccccc1Cl [compound 1, 1,2-dichlorobenzene]
logP O/W [1]: 3.43

Clc1cc(Cl)cc(Cl)c1 [compound 2, 1,3,5-trichlorobenzene]
logP O/W [1]: 4.19

Clc1cccc(Cl)c1 [compound 3, 1,3-dichlorobenzene]
logP O/W [1]: 3.53

Cc1cccc(C)c1[N+](=O)[O-] [compound 4, 1,3-dimethyl-2-nitrobenzene]
logP O/W [1]: 2.95

Cc1ccc(C)cc1 [compound 6, 1,4-dimethylbenzene]
log P bilayer/water exptl [2]: 2.98
log P C16/DAcPC [3]: 2.59 ^b

BrCCc1ccccc1 [compound 7, 1-bromo-2-phenylethane]
fraction of the total amount in the tissue present in the bilayer [4]: 93%
logP O/W [1]: 3.09

BrCCCc1ccccc1 [compound 8, 1-bromo-3-phenylpropane]
logP O/W [1]: 3.72

Clc1ccc(Br)cc1 [compound 9, 1-bromo-4-chlorobenzene]
logP O/W [1]: 3.54

Brc1cccc2ccccc12 [compound 10, 1-bromonaphthalene]
logP O/W [1]: 4.06

CCCCCCO [compound 11, 1-hexanol]
effect on photolysis of rhodopsin [5]: negligible
fraction of the total amount in the tissue present in the bilayer [4]: 68%

Clc1ccc(-c2ccc(Cl)c(Cl)c2Cl)c(Cl)c1Cl [compound 14, 2,2′,3,3′,4,4′-hexachlorobiphenyl]
logP O/W [1]: 7.32

Clc1cccc(-c2ccc(Cl)c(Cl)c2Cl)c1Cl [compound 16, 2,2′,3,3′,4-pentachlorobiphenyl]
logP O/W [1]: 6.30

Clc1ccc(Cl)c(-c2c(Cl)ccc(Cl)c2Cl)c1Cl [compound 17, 2,2′,3,3′,6,6′-hexachlorobiphenyl]
logP O/W [1]: 7.12

Clc1cccc(-c2cccc(Cl)c2Cl)c1Cl [compound 18, 2,2′,3,3′-tetrachlorobiphenyl]
logP O/W [1]: 6.18

Clc1ccc(Cl)c(-c2cccc(Cl)c2Cl)c1 [compound 21, 2,2′,3,5′-tetrachlorobiphenyl]
logP O/W [1]: 5.81

Clc1ccccc1-c1cccc(Cl)c1Cl [compound 23, 2,2′,3-trichlorobiphenyl]
logP O/W [1]: 5.60

Clc1cc(Cl)c(-c2c(Cl)cc(Cl)cc2Cl)c(Cl)c1 [compound 24, 2,2′,4,4′,6,6′-hexachlorobiphenyl]
logP O/W [1]: 7.29

Clc1ccc(Cl)c(-c2cc(Cl)c(Cl)cc2Cl)c1 [compound 25, 2,2′,4,5,5′-pentachlorobiphenyl]
logP O/W [1]: 6.85

Clc1cc(Cl)c(-c2ccccc2Cl)cc1Cl [compound 26, 2,2′,4,5-tetrachlorobiphenyl]
logP O/W [1]: 6.27

Clc1ccc(-c2cc(Cl)ccc2Cl)c(Cl)c1 [compound 27, 2,2′,4,5′-tetrachlorobiphenyl]
logP O/W [1]: 6.36

Clc1ccc(-c2ccccc2Cl)c(Cl)c1 [compound 28, 2,2′,4-trichlorobiphenyl]
logP O/W [1]: 5.76

Clc1ccc(Cl)c(-c2cc(Cl)ccc2Cl)c1 [compound 29, 2,2′,5,5′-tetrachlorobiphenyl]
logP O/W [1]: 6.26

Clc1ccccc1-c1c(Cl)cccc1Cl [compound 31, 2,2′,6-trichlorobiphenyl]
logP O/W [1]: 5.47

Clc1ccccc1-c1ccccc1Cl [compound 33, 2,2′-dichlorobiphenyl]
logP O/W [1]: 4.97

Clc1c(Cl)c(Cl)c(-c2ccccc2)c(Cl)c1Cl [compound 35, 2,3,4,5,6-pentachlorobiphenyl]
logP O/W [1]: 6.74

Clc1cc(-c2ccccc2)c(Cl)c(Cl)c1Cl [compound 36, 2,3,4,5-tetrachlorobiphenyl]
logP O/W [1]: 6.41

Clc1cccc(-c2cc(Cl)ccc2Cl)c1 [compound 39, 2,3′,5-trichlorobiphenyl]
logP O/W [1]: 5.76

Clc1ccc(Cl)c(-c2ccccc2)c1Cl [compound 40, 2,3,6-trichlorobiphenyl]
logP O/W [1]: 5.67

Clc1cccc(-c2c(Cl)cccc2Cl)c1 [compound 41, 2,3′,6-trichlorobiphenyl]
logP O/W [1]: 5.67

Nc1cc2ccccc2cc1N [compound 42, 2,3-diaminonaphthalene]
logP O/W [1]: 1.54

Clc1cccc(-c2ccccc2)c1Cl [compound 43, 2,3-dichlorobiphenyl]
logP O/W [1]: 4.99

Clc1cccc(-c2ccccc2Cl)c1 [compound 44, 2,3′-dichlorobiphenyl]
logP O/W [1]: 5.02

Nc1cc(Cl)c(Cl)cc1Cl [compound 45, 2,4,5-trichloroaniline]
logP O/W [1]: 3.69

Clc1cc(Cl)c(-c2ccccc2)cc1Cl [compound 46, 2,4,5-trichlorobiphenyl]
logP O/W [1]: 5.90

Clc1cc(Cl)c(-c2ccccc2)c(Cl)c1 [compound 47, 2,4,6-trichlorobiphenyl]
logP O/W [1]: 5.71

Clc1ccc(-c2c(Cl)cccc2Cl)cc1 [compound 48, 2,4′,6-trichlorobiphenyl]
logP O/W [1]: 5.75

Clc1ccc(-c2ccccc2)c(Cl)c1 [compound 49, 2,4-dichlorobiphenyl]
logP O/W [1]: 5.30

Clc1ccc(-c2ccccc2Cl)cc1 [compound 50, 2,4′-dichlorobiphenyl]
logP O/W [1]: 5.10

Clc1ccc(Cl)c(-c2ccccc2)c1 [compound 51, 2,5-dichlorobiphenyl]
logP O/W [1]: 5.16

Cc1ccc(C)c(O)c1 [compound 52, 2,5-dimethylphenol]
logP O/W [1]: 2.33

Clc1cccc(Cl)c1-c1ccccc1 [compound 53, 2,6-dichlorobiphenyl]
logP O/W [1]: 4.98

COc1cccc(OC)c1O [compound 54, 2,6-dimethoxyphenol]
logP O/W [1]: 1.15

Cc1ccccc1Br [compound 57, 2-bromotoluene]
logP O/W [1]: 3.50

Clc1ccccc1-c1ccccc1 [compound 58, 2-chlorobiphenyl]
logP O/W [1]: 4.53

Cc1ccc2cc3ccccc3cc2c1 [compound 60, 2-methylanthracene]
logP O/W [1]: 5.00

Nc1cccc(Br)c1 [compound 63, 3-bromoaniline]
logP O/W [1]: 2.10

CC(=O)c1ccc(N)cc1 [compound 68, 4-aminoacetophenone]
logP O/W [1]: 0.86

Nc1ccc(Br)cc1 [compound 71, 4-bromoaniline]
logP O/W [1]: 2.11

Cc1cc(O)ccc1Cl [compound 74, 4-chloro-3-methylphenol]
fraction of the total amount in the tissue present in the bilayer [4]: 97%
logP O/W [1]: 3.10

O=C(c1ccccc1)c1ccc(Cl)cc1 [compound 75, 4-chlorobenzophenone]
logP O/W [1]: 3.79

CN(C)c1ccc(C=O)cc1 [compound 77, 4-dimethylamino-benzaldehyde]
logP O/W [1]: 2.01

Cc1ccc([N+](=O)[O-])cc1 [compound 79, 4-nitrotoluene]
logP O/W [1]: 2.37

CCCCCc1ccc(O)cc1 [compound 80, 4-n-pentylphenol]
logP O/W [1]: 4.24

OCc1c2ccccc2cc2ccccc12 [compound 82, 9-anthracenemethanol]
log P bilayer/water exptl [2]: 3.50
fraction of the total amount in the tissue present in the bilayer [4]: 99%
log P C16/DAcPC [3]: –0.42 ^b

OCc1ccccc1 [compound 89, benzylalcohol]
log P bilayer/water exptl [2]: 2.03

CC(C)(c1ccc(O)cc1)c1ccc(O)cc1 [compound 91, bisphenol A]
log P bilayer/water exptl [2]: 2.95
log P C16/DAcPC [3]: –2.70 ^b

Clc1ccccc1 [compound 92, chlorobenzene]
logP O/W [1]: 2.89

CCO [compound 94, ethanol]
effect on photolysis of rhodopsin [5]: promoting effect

CCOC(=O)c1cccnc1 [compound 95, ethylnicotinate]
logP O/W [1]: 1.32

CCCc1ccccc1 [compound 101, n-propylbenzene]
log P bilayer/water exptl [2]: 3.29
log P C16/DAcPC [3]: 2.98 ^b

c1ccc2c(c1)ccc1ccccc12 [compound 104, phenanthrene]
logP O/W [1]: 4.46

c1ccc2[nH]ccc2c1 [compound 111, indole]
fraction of the total amount in the tissue present in the bilayer [4]: 81%

CCCCO [compound 113, 1-butanol]
effect on photolysis of rhodopsin [5]: promoting effect

CCCCCO [compound 114, 1-pentanol]
effect on photolysis of rhodopsin [5]: promoting effect

CCCCCCCO [compound 115]
effect on photolysis of rhodopsin [5]: inhibitory effect

CCCCCCCCO [compound 116]
effect on photolysis of rhodopsin [5]: inhibitory effect
